Assay type in all cases: functional, cell-based
In one assay the test system is HepG2. Nature of the assay: Concentration required to inhibit growth of human hepatocellular carcinoma (HepG2) cell line.
Another assay has as its system Vero. Put plainly: Concentration required to inhibit growth of african green monkey kidney cell line. Particulars: Chlorocebus sabaeus.
A further assay concerns HeLa. Nature of the assay: Concentration required to inhibit growth of human cervical carcinoma (HeLa) cell line.
For a further assay, the system named is KB. Nature of the assay: Concentration required to inhibit growth of human epidermoid carcinoma (KB) cell line.

As a reminder, the IC50 is the concentration that gives 50% inhibition. For the compound `COc1cc(C(=O)OCC(C)CC2=C(O)C(=O)c3ccccc3C2=O)c(O)c2ccccc12` (centres undefined), the concentration for half-maximal inhibition (IC50) with HepG2 was 3.14 µM; in the assay with Vero, less than 0.22 µM; with HeLa it was 2.83 µM; in the assay on KB, 2.16 µM.

As for `COc1cc(C(=O)OCC(C)(C)CC2=C(O)C(=O)c3ccccc3C2=O)c(OC)c2ccccc12`, the IC50 in the assay on HepG2 is 0.97 µM; in the assay with Vero, 32.7 µM; in the assay with HeLa it was 1.09 µM; in the assay on KB, 0.35 µM.

In the case of `CC(C)(COC(=O)c1ccccc1O)CC1=C(O)C(=O)c2ccccc2C1=O`, the IC50 is 5.44 µM in the assay with HepG2, greater than 136 µM in the assay on Vero, 4.34 µM in the assay with HeLa and 4.65 µM with KB.

Take `COc1ccc(OC)c(C(=O)OCC(C)CC2=C(O)C(=O)c3ccccc3C2=O)c1` (centres undefined): the half-inhibitory concentration (IC50) in the assay on HepG2 worked out at 53.1 µM; in the assay on Vero, 4.05 µM; in the assay on HeLa it was 41.9 µM; in the assay on KB it was 37.6 µM.

In the case of `COc1cc(C(=O)OCC(C)CC2=C(O)C(=O)c3ccccc3C2=O)c(OC)c2ccccc12` (centres undefined), the IC50 was found to be 3.65 µM with HepG2, 5.91 µM in the assay with Vero, 3.8 µM with HeLa and 3.52 µM in the assay with KB.

As to `CC(C)(COC(=O)c1ccc2ccccc2c1O)CC1=CC(=O)c2ccccc2C1=O`, the 50% inhibitory concentration (IC50) stood at 48.3 µM in the assay with HepG2, 90.8 µM with Vero, 45.9 µM with HeLa and 38.2 µM in the assay on KB.

In the case of `CC(COC(=O)c1ccc2ccccc2c1)CC1=CC(=O)c2ccccc2C1=O` (centres undefined), the 50% inhibitory concentration (IC50) amounted to 27.3 µM with HepG2, 43.4 µM in the assay on Vero, 38.2 µM in the assay on HeLa and 29 µM with KB.

Consider `COC1=C(CC(C)(C)COC(=O)c2cc(OC)ccc2OC)C(=O)c2ccccc2C1=O`, for which the 50% inhibitory concentration (IC50) came to 40.7 µM with HepG2, 13.4 µM in the assay on Vero, 38.8 µM in the assay on HeLa and 14.9 µM in the assay on KB.

Regarding `CC(C)(COC(=O)c1ccc2ccccc2c1)CC1=C(O)C(=O)c2ccccc2C1=O`, the IC50 in the assay on HepG2 stood at 1.3 µM; with Vero, 1.5 µM; with HeLa, 1.17 µM; with KB, 1.59 µM.

With `O=C1C(=O)c2ccccc2C(O)=C1CCCOC(=O)c1ccc2ccccc2c1`, the IC50 is 15.5 µM in the assay on HepG2, 24 µM in the assay on Vero, 15.8 µM with HeLa and 14.4 µM in the assay with KB.

For the compound `COc1cc(C(=O)OCCCC2=CC(=O)c3ccccc3C2=O)c(O)c2ccccc12`, the IC50 in the assay on HepG2 came to 64.4 µM; with Vero it was 48.5 µM; with HeLa it was 45.4 µM; in the assay with KB, 93.8 µM.

Take `CC(COC(=O)c1ccc2ccccc2c1)CC1=C(O)C(=O)c2ccccc2C1=O` (centres undefined): the IC50 was found to be 3.7 µM with HepG2, 1.8 µM with Vero, 4.25 µM with HeLa and 3.58 µM with KB.

Turning to `CC(COC(=O)c1ccccc1)CC1=C(O)C(=O)c2ccccc2C1=O` (centres undefined), the IC50 in the assay with HepG2 stood at 8.43 µM; with Vero it was 2.31 µM; with HeLa, 4.76 µM; in the assay with KB it was 4.57 µM.

For `COc1ccc(O)c(C(=O)OCC(C)(C)CC2=C(O)C(=O)c3ccccc3C2=O)c1`, the IC50 was found to be 1.61 µM in the assay on HepG2, 11.5 µM in the assay on Vero, 3.33 µM in the assay on HeLa and 1.18 µM in the assay with KB.

For `O=C1C(=O)c2ccccc2C(O)=C1CCCOC(=O)c1ccc2ccccc2c1O`, the IC50 with HepG2 is 16.2 µM; in the assay on Vero, 124 µM; in the assay on HeLa, 15.1 µM; in the assay on KB, 12.3 µM.

For the compound `CC(C)(COC(=O)c1cc(O)c2ccccc2c1O)CC1=C(O)C(=O)c2ccccc2C1=O`, the concentration for half-maximal inhibition (IC50) turned out to be 12.9 µM in the assay with HepG2, 15.4 µM in the assay on Vero, 12.4 µM with HeLa and 4.22 µM in the assay on KB.

In the case of `COc1c(C(=O)OCC(C)CC2=CC(=O)c3ccccc3C2=O)ccc2ccccc12` (centres undefined), the concentration for half-maximal inhibition (IC50) in the assay on HepG2 was determined as 39.5 µM; in the assay with Vero, 20.2 µM; in the assay with HeLa, 39.5 µM; in the assay with KB, 26.4 µM.

Regarding `CC(C)(COC(=O)c1ccccc1)CC1=C(O)C(=O)c2ccccc2C1=O`, the IC50 with HepG2 turned out to be 4.85 µM; with Vero, 48.6 µM; in the assay on HeLa, 3.02 µM; in the assay with KB, 1.53 µM.

Consider `COc1c(C(=O)OCC(C)CC2=C(O)C(=O)c3ccccc3C2=O)ccc2ccccc12` (centres undefined), for which the 50% inhibitory concentration (IC50) with HepG2 amounted to 1.04 µM; in the assay on Vero, 0.97 µM; with HeLa, 0.38 µM; in the assay on KB, 0.66 µM.

For the compound `COc1cc(C(=O)OCCCC2=C(O)C(=O)c3ccccc3C2=O)c(OC)c2ccccc12`, the half-maximal inhibitory concentration (IC50) turned out to be 35.9 µM in the assay on HepG2, 75.4 µM in the assay on Vero, 32.3 µM with HeLa and 12.8 µM in the assay on KB.

As to `CC(COC(=O)c1ccc2ccccc2c1O)CC1=CC(=O)c2ccccc2C1=O` (centres undefined), the IC50 amounted to 42.1 µM in the assay on HepG2, 37.9 µM with Vero, 46.2 µM with HeLa and 38.6 µM in the assay with KB.

Regarding `CC(COC(=O)c1ccc2ccccc2c1O)CC1=C(O)C(=O)c2ccccc2C1=O` (centres undefined), the concentration for half-maximal inhibition (IC50) in the assay on HepG2 amounted to 1 µM; with Vero it was 0.7 µM; with HeLa, 3.97 µM; with KB, 1.06 µM.

As to `COc1c(C(=O)OCCCC2=CC(=O)c3ccccc3C2=O)ccc2ccccc12`, the IC50 in the assay on HepG2 is 54.2 µM; in the assay on Vero, 40 µM; with HeLa, 47.5 µM; in the assay on KB, 50 µM.

In the case of `COc1cc(C(=O)OCC(C)(C)CC2=C(O)C(=O)c3ccccc3C2=O)c(O)c2ccccc12`, the concentration for half-maximal inhibition (IC50) in the assay on HepG2 was 0.38 µM; in the assay on Vero it was 12.7 µM; with HeLa, 0.3 µM; with KB it was less than 0.22 µM.

With `CC(C)(COC(=O)c1cc(O)ccc1O)CC1=C(O)C(=O)c2ccccc2C1=O`, the IC50 was determined as 47.6 µM in the assay with HepG2, 77 µM with Vero, 45.5 µM with HeLa and 64.4 µM with KB.

Regarding `COc1ccc(O)c(C(=O)OCC(C)CC2=C(O)C(=O)c3ccccc3C2=O)c1` (centres undefined), the IC50 with HepG2 came to 4.96 µM; with Vero, 14 µM; in the assay on HeLa, 4.55 µM; in the assay with KB, 4.04 µM.

For the compound `CC(C)(COC(=O)c1ccc2ccccc2c1)CC1=CC(=O)c2ccccc2C1=O`, the IC50 worked out at 45.2 µM in the assay with HepG2, 33.3 µM in the assay on Vero, 41.2 µM in the assay on HeLa and 32 µM with KB.

Consider `CC(COC(=O)c1ccccc1O)CC1=C(O)C(=O)c2ccccc2C1=O` (centres undefined), for which the half-inhibitory concentration (IC50) worked out at 11.6 µM with HepG2, 75.9 µM in the assay with Vero, 10.3 µM in the assay on HeLa and 4.65 µM in the assay on KB.

`COC1=C(CC(C)(C)COC(=O)c2ccc3ccccc3c2)C(=O)c2ccccc2C1=O`: the IC50 came to 127 µM with HepG2, 47.9 µM in the assay on Vero, 44.9 µM in the assay with HeLa and 91.5 µM with KB.

Take `COc1cc(C(=O)OCCCC2=C(O)C(=O)c3ccccc3C2=O)c(O)c2ccccc12`: the IC50 is 4.28 µM in the assay on HepG2, 40.9 µM with Vero, 4.24 µM with HeLa and 4.09 µM with KB.

Compound `CC(C)(CO)CC1=C(O)C(=O)c2ccccc2C1=O` registered an IC50 with KB of 11.2 µM.

On to `O=C(OCCCC1=CC(=O)c2ccccc2C1=O)c1ccc2ccccc2c1`, for which the IC50 turned out to be 10.2 µM in the assay with HepG2, 14.9 µM in the assay on Vero, 12.9 µM in the assay on HeLa and 13.7 µM in the assay on KB.

In the case of `COC1=C(CC(C)(C)COC(=O)c2ccc3ccccc3c2OC)C(=O)c2ccccc2C1=O`, the half-inhibitory concentration (IC50) in the assay on HepG2 was 11.5 µM; in the assay with Vero it was 5.96 µM; in the assay on HeLa, 9.47 µM; in the assay on KB, 10.1 µM.

On to `COc1ccccc1C(=O)OCC(C)CC1=C(O)C(=O)c2ccccc2C1=O` (centres undefined), for which the IC50 in the assay on HepG2 came to 4.04 µM; in the assay on Vero it was 29.8 µM; with HeLa, 4.12 µM; in the assay on KB it was 1.64 µM.

Take `CC(C)(COC(=O)c1ccc2ccccc2c1O)CC1=C(O)C(=O)c2ccccc2C1=O`: the IC50 was 0.32 µM in the assay on HepG2, 1 µM in the assay on Vero, less than 0.23 µM in the assay on HeLa and less than 0.23 µM in the assay on KB.

Turning to `COc1c(C(=O)OCCCC2=C(O)C(=O)c3ccccc3C2=O)ccc2ccccc12`, the half-maximal inhibitory concentration (IC50) amounted to 45.7 µM in the assay with HepG2, 120 µM with Vero, 42.9 µM in the assay with HeLa and 33.7 µM in the assay on KB.

In the assay with KB, `CC(CO)CC1=C(O)C(=O)c2ccccc2C1=O` (centres undefined) yielded an IC50 of 59.4 µM.

In the case of `COc1c(C(=O)OCC(C)(C)CC2=CC(=O)c3ccccc3C2=O)ccc2ccccc12`, the half-maximal inhibitory concentration (IC50) in the assay on HepG2 is 14.4 µM; with Vero it was 30.4 µM; in the assay on HeLa it was 36.9 µM; in the assay with KB it was 12.5 µM.

For `COC1=C(CC(C)(C)COC(=O)c2ccccc2)C(=O)c2ccccc2C1=O`, the IC50 with HepG2 was 46.7 µM; with Vero, 34.8 µM; with HeLa, 40.6 µM; in the assay with KB it was 43 µM.

Take `O=C1C=C(CCCOC(=O)c2ccc3ccccc3c2O)C(=O)c2ccccc21`: the half-inhibitory concentration (IC50) in the assay on HepG2, in the assay on Vero, in the assay on HeLa and with KB was greater than 259 µM throughout.

Regarding `COc1c(C(=O)OCC(C)(C)CC2=C(O)C(=O)c3ccccc3C2=O)ccc2ccccc12`, the IC50 in the assay with HepG2 is 0.24 µM; in the assay on Vero, 17.6 µM; with HeLa, 0.23 µM; in the assay with KB, less than 0.22 µM.

`COc1ccc(OC)c(C(=O)OCC(C)(C)CC2=C(O)C(=O)c3ccccc3C2=O)c1`: the half-inhibitory concentration (IC50) in the assay with HepG2 turned out to be 3.54 µM; with Vero, 9.11 µM; in the assay with HeLa, 3.42 µM; with KB, 3.38 µM.

`COc1ccccc1C(=O)OCC(C)(C)CC1=C(O)C(=O)c2ccccc2C1=O`: the IC50 worked out at 4.72 µM with HepG2, 8.98 µM with Vero, 4.04 µM in the assay with HeLa and 1.86 µM in the assay on KB.

Take `COc1cc(C(=O)OCCCC2=CC(=O)c3ccccc3C2=O)c(OC)c2ccccc12`: the 50% inhibitory concentration (IC50) with HepG2, with Vero, in the assay on HeLa and with KB was greater than 233 µM in each case.

Turning to `COc1cccc2c1C(=O)c1c(O)c3c(c(O)c1C2=O)C[C@@](O)(C(=O)CO)C[C@@H]3O[C@H]1C[C@H](N)[C@H](O)[C@H](C)O1` [DOXORUBICIN], the IC50 with HepG2 stood at 0.4 µM; with Vero it was 23.9 µM; in the assay with HeLa it was 0.33 µM; with KB it was 0.03 µM.

These data come from ChEMBL document CHEMBL1137099, “Synthesis of novel rhinacanthins and related anticancer naphthoquinone esters” (J Med Chem, 2004).
